Measurements as given in paper PMC7498324, “Structure and mechanism of CutA, RNA nucleotidyl transferase with an unusual preference for cytosine” (Nucleic Acids Research, 2020).

What follows are compounds tested on T1, CutA (TtCutA) (assay: fluorescence anisotropy competition with ATP-Cy5).
T1 construct: TtCutA^240-603
Type: binding, Thermothielavioides terrestris

Structure (SMILES)	IC50 [nM]
Nc1ncnc2c1ncn2[C@@H]1O[C@H](COP(=O)(O)OP(=O)(O)OP(=O)(O)O)[C@@H](O)[C@H]1O [ATP]	562 ± 21
Nc1ccn([C@@H]2O[C@H](COP(=O)(O)OP(=O)(O)OP(=O)(O)O)[C@@H](O)[C@H]2O)c(=O)n1 [CTP]	467 ± 16
Nc1nc2c(ncn2[C@@H]2O[C@H](COP(=O)(O)OP(=O)(O)OP(=O)(O)O)[C@@H](O)[C@H]2O)c(=O)[nH]1 [GTP]	1050 ± 56
O=c1ccn([C@@H]2O[C@H](CO[P@@](=O)(O)O[P@@](=O)(O)OP(=O)(O)O)[C@@H](O)[C@H]2O)c(=O)[nH]1 [UTP]	537 ± 23
